PubChem BioAssay (NCI)
Values joined by “and” are separate entries in the source; they are usually repeats but may differ in a detail not shown here. Identical values can stand only once.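 Tested at 5 concentrations; 48 h exposure; 96-well plates; endpoints linearly interpolated, else capped at highest concentration. At the GI50, growth is halved. TGI: concentration producing complete growth inhibition.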

Tests used:
Assay in all cases: inhibition of tumour cell growth, NCI panel, 48 h
[1] = system: UACC-62 melanoma
[2] = system: HL-60(TB) leukemia
[3] = system: LOX IMVI melanoma
[4] = system: HT29 colon
[5] = system: MOLT-4 leukemia
[6] = system: SW-620 colon
[7] = system: NCI-H522 lung
[8] = system: ACHN renal
[9] = system: NCI-H226 lung
[10] = system: HOP-92 NSCLC

| SMILES | GI50 [1] | TGI [1] | GI50 [2] | TGI [2] | GI50 [3] | TGI [3] | GI50 [4] | TGI [4] | GI50 [5] | TGI [5] | GI50 [6] | TGI [6] | GI50 [7] | TGI [7] | GI50 [8] | TGI [8] | GI50 [9] | TGI [9] | GI50 [10] | TGI [10] |
| --- | --- | --- | --- | --- | --- | --- | --- | --- | --- | --- | --- | --- | --- | --- | --- | --- | --- | --- | --- | --- |
| CNCC(=O)NC(CO)C(=O)NC(CO)C(=O)NC1C(C(N)=O)OC(n2ccc(N)nc2=O)C(O)C1O (stereo not given) | 2.88 µg/mL | 16.8 µg/mL | > 50 µg/mL | > 50 µg/mL | 2.43 µg/mL | 15.9 µg/mL | 25.9 µg/mL | > 50 µg/mL | > 50 µg/mL | > 50 µg/mL | > 50 µg/mL | > 50 µg/mL | 1.85 µg/mL | 8.98 µg/mL | 5.15 µg/mL | > 50 µg/mL | 1.65 µg/mL | 13.9 µg/mL | 4.83 µg/mL | > 50 µg/mL |
| Cn1c2c(c3ccccc3c1=O)C(=O)c1ccccc1-2 | – | > 100000 nM | – | > 100000 nM | – | > 100000 nM | – | > 100000 nM | – | > 100000 nM | – | > 100000 nM | – | > 100000 nM | – | – | – | > 100000 nM | – | > 100000 nM |
| COc1cc(C2c3cc4c(cc3[C@@H](Nc3ccc([N+](=O)[O-])cc3)C3COC(=O)[C@H]23)OCO4)cc(OC)c1O (stereo not given in full) | 547 nM | 8310 nM | 11.4 nM | – | 367 nM | 6670 nM | – | 7810 nM | 34.2 nM | 544 nM and 442 nM | 783 nM | > 91700 nM | 733 nM | 5420 nM | – | 2820 nM | – | 3100 nM | 393 nM | – |
| OC(CN1CCCC2CCCCC21)c1cc2ccccc2c2ccccc12 (stereo not given) | 2320 nM | 6580 nM | 2020 nM | 3760 nM | 1530 nM | 2930 nM | 1320 nM | 3070 nM | 1810 nM | 4790 nM | 1660 nM | 3360 nM | 1450 nM | 3060 nM | 3000 nM | 10100 nM | 2140 nM | 6320 nM | 1240 nM | 3420 nM |
| NC(Cc1cccnn1)C(=O)O (stereo not given) | – | > 100000 nM | – | > 100000 nM | – | > 100000 nM | – | > 100000 nM | – | > 100000 nM | – | > 100000 nM | – | > 100000 nM | – | > 100000 nM | – | > 100000 nM | – | > 100000 nM |
| COc1ccc(/C=C\c2cc(OC)c(OC)c(OC)c2)cc1OC(=O)CC(N)C(=O)O (stereo not given) | 0.354 nM | > 100000 nM | 0.165 nM | – | 0.0639 nM | – | 4650 nM | 39600 nM | 1.72 nM | – | 0.318 nM | > 100000 nM | 0.424 nM | 1.57 nM and 1.92 nM | 0.709 nM | > 100000 nM | – | 107 nM | 3.39 nM | 77300 nM |
| CCCCCN(CCCCC)C(=O)[C@H](CCC(=O)O)NC(=O)c1cc2ccccc2[nH]1 | – | > 100000 nM | – | 61800 nM | – | > 100000 nM | – | > 100000 nM | – | 64400 nM | – | > 100000 nM | – | 67700 nM | – | > 100000 nM | – | > 100000 nM | – | 99400 nM |
| C[C@H]1COCCN1c1nc(-c2cnc(N)cc2C(F)F)nc(N2CCOCC2)n1 | 79.4 nM | 401 nM | 171 nM | 97800 nM | 152 nM | 4440 nM | 176 nM | > 100000 nM | 225 nM | 33000 nM | 258 nM | > 100000 nM | 148 nM | > 60800 nM | 207 nM | > 100000 nM | 127 nM | > 100000 nM | 19.7 nM | 197 nM |
